pKd: −log10 of the molar value. Ends that are not written are not given here. * marks the point of attachment. SO3 = sulfate on the tyrosine hydroxyl group, O=S(=O)(O)*

One assay addresses T1, VEGF (Homo sapiens, UniProt P15692).
T1 sequence (P15692 27-191 isoform P15692-4): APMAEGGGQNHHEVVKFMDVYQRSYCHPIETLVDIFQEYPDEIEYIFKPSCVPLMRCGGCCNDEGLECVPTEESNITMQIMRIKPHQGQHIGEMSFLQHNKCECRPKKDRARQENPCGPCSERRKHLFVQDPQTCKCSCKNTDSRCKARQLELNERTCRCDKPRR
As to the kind of experiment: Dissociation constant (KD) by surface plasma resonance (SPR). The conditions noted are these: ± standard deviation. Format: binding. The text has this:
The sequence from the highest ranked bead from the first library of Example 1, was synthesized as SY(SO3)DY(SO3)G (SEE SEQ ID NO: 17), and the peptide Y(SO3)Y(SO3)GGY(SO3)DY(SO3) (SEE SEQ ID NO: 14) from the library of this Example were both synthesized independently and the dissociation constant (KD) determined by surface plasma resonance (SPR). The peptides were compared to suramin, a known heparin mimic that inhibits angiogenesis. […] Using SPR, there was no detectible binding of the analogous desulfated peptides to VEGF.

In a further assay the target is T2, VEGF165 (Homo sapiens, UniProt P15692).
T2 construct: made in house; host or cells: E. coli AD494 (DE3)pLysS
T2 sequence (P15692 27-191 isoform P15692-4): T1 sequence (P15692 27-191 isoform P15692-4)
As to the kind of experiment: Colorimetric competitive bead assay with biotinylated VEGF165 in presence of heparin. It is filed as binding. The note with it: about 0.25 nM biotinylated VEGF165; 1 or 10 equivalents of heparin. On the procedure:
A colorimetric assay was used to screen the library. The assay employed two different precipitating, developing dyes. In this way, beads that bound VEGF165 selectively and through the sulfate functionality could be determined. A portion of the library (2–3 copies) was swelled with H2O and rinsed 3 times with TBS. The resin was subjected overnight to 0.1% albumin and 0.2% Tween in Tris buffered saline (TBS, blocking buffer) and then rinsed with TBS (2×) prior to adding 1 mL streptavidin alkaline phosphatase (diluted 1:1000 from a 1 mg/mL solution) and shaking for 2 hours. The resin was rinsed with TBS (5×) and 200 μL of 5-bromo-4-chloro-3-indoylphosphate p-toluidine salt/nitro blue tetrazolium chloride (BCIP/NBT) reagent was added to develop a blue/black color where the streptavidin alkaline phosphatase was present. Nonspecific adsorption of the streptavidin alkaline phosphatase was detected as blue/black stained beads. After 15 minutes, the resin was rinsed with TBS (5×) prior to adding 100 μL of about 0.25 nM of biotinylated VEGF165 in the presence or absence of 1 or 10 equivalents of heparin sodium salt (isolated from porcine intestinal mucosa) in 400 μL of blocking buffer. The mixture was shaken overnight, the solution removed, the resin washed with TBS (6×), and 1 mL streptavidin alkaline phosphatase (diluted 1:1000 from a 1 mg/mL solution) was added. […]

As usually defined, the pKd is −log10 of the Kd, conventionally taken in molar units. A low value points to a high Kd. The compound `Cc1ccc(C(=O)Nc2ccc(S(=O)(=O)O)c3cc(S(=O)(=O)O)cc(S(=O)(=O)O)c23)cc1NC(=O)c1cccc(NC(=O)Nc2cccc(C(=O)Nc3cc(C(=O)Nc4ccc(S(=O)(=O)O)c5cc(S(=O)(=O)O)cc(S(=O)(=O)O)c45)ccc3C)c2)c1` [Suramin, suramin] had a pKd on VEGF of 3.47.

As to “Y(SO3)Y(SO3)GGY(SO3)DY(SO3) (not fully specified (N-terminus); printed as Y(SO3)Y(SO3)GGY(SO3)DY(SO3))”, the “Binding of VEGF165 to peptide bead in the presence of heparin (in words)” value with VEGF165 is on record as “bound”.
